Experimental findings from patent publication US9138393B2, “Cosmetic compositions containing substituted azole and methods for improving the appearance of aging skin” (The Proctor & Gamble Company, priority 2013, dated 2015) are described below.

One data set has as its target CYP3A4 (Homo sapiens (Human), UniProt P08684). Briefly: In vitro CYP3A4 inhibition assay (P450-GLO Assay kit, Promega). An excerpt:
The metabolism of retinoic acid and vitamin D in the skin is incompletely understood, but there is evidence for the involvement of CYP26A1, CYP3A4 and CYP2C8 in catalyzing the 4-hydroxylation of all-trans RA to 4-hydroxy-RA. It is believed, without being limited by theory, that CYP3A4 may be particularly important for ATRA metabolism in the skin. This is because CYP3A4 is expressed in skin, involved in RA metabolism, a CYP with one of the broadest substrate specificities of all of the known CYPs and available as a human recombinant protein in a commercial kit. Thus, a commercially available CYP3A4 assay was used as a surrogate to predict RAMBA potential in the skin.
The commercially available P450-GLO™ Assay kit (Promega Corporation, Madison Wis.) was used to screen various compounds for potential CYP activity, specifically CYP3A4A inhibition activity. CYP3A4A is thought to be among the primary CYP isoforms responsible for retinoic acid metabolism in the skin.
A commercially available P450-GLO™ Assay kit (Promega Corporation, Madison Wis.) is used to screen various compounds for CYP3A4A inhibition activity. CYP3A4A is thought to be one of the primary CYP isoforms responsible for retinoic acid metabolism in the skin.

Data set [1] relates to ATRA 4-hydroxylase (CYP) activity. The data set is described as follows: in vitro. The settings on record: pig, pH 7.4. From the text: (§1) Cytochrome P450 is a large and diverse group of enzymes that catalyze the oxidation of organic substances. […] Applicant evaluated the potential RAMBA activity of several azoles using pig liver microsomes, a rich source of CYP activity, comprising many different CYP 450 isoforms. […] As understanding in this area has progressed, a more specific CYP inhibition assay can be used to provide better predictivity of activity in human skin. Nevertheless, this assay may still be used as a general predictor of overall CYP activity.
(§2) All procedures were carried out under minimal light in order to prevent degradation of the retinoid samples.
(§3) Microsomal preparation: One lobe of fresh pig liver is obtained (e.g., at about the time of slaughter from a food-processing company) and immediately placed in ice cold 15 mM KH2PO4/250 mM sucrose (pH 7.4) and kept on ice during transportation. A 10 g sample of liver is minced and homogenized in 30 mL of homogenization buffer (15 mM KH2PO4/250 mM sucrose) using a Tekmar homoginizer or equivalent by pulsing 3 times with 20 second pulses. […] The remaining pig liver may be stored at −80° C. The homogenates from the 8 samples are pooled and centrifuged at 13,000×g for 20 minutes at 4° C. to remove crude debris. The supernatant is further centrifuged at 100,000×g for 70 minutes at 4° C. The microsomal pellets are re-suspended into 50 mL of 150 mM KH2PO4/1 mM DTT (pH 7.4) and 1 mL aliquots are stored at −80° C.
(§4) 100-150 μg of pig liver microsomal protein in 150 mM KH2PO4 is incubated at 37° C. in the presence of radiolabeled ATRA and 5 mM NADPH for 90 min. The final ATRA concentration is 1 μM, as a combination of [20-Methyl-^3H]ATRA and unlabeled ATRA. Initially, radiolabeled ATRA may be used to assist in validating the method. Once retention times of retinoid metabolites are identified, unlabeled ATRA is used for screening. Compounds tested as possible competitive substrates are added to the assay 10 min prior to the addition of ATRA. Ethanol, containing 0.1% butylated hydroxytoluene (BHT) as an antioxidant, is used to stop the reactions. For recovery of ATRA the pH of reactions are adjusted to 3.0 before extraction with 0.1N HCl. Retinoids are extracted from the protein aqueous phase with 4 mL hexane, 1 ml 100 μg/ml BHT in water (pH 3). An additional 4 mL of hexane (pH 3) is used for a second extraction. The organic extractions are pooled, evaporated to dryness using a speed vac, and resuspended in 62.5 μl acetonitrile containing 1 mg/ml BHT. Samples are analyzed by HPLC.HPLC separation of retinoids. […] Mobile phases used for gradient elution of retinoids are those of Duell et al., J. Clin. Invest. […] Mobile phase A is acetonitrile:0.02 M ammonium acetate:acetic acid (1:1:0.01) and mobile phase B is acetonitrile:0.2M ammonium acetate:acetic acid (19:1:0.008). At the start of the HPLC run, solvent A is run 100% followed by a linear gradient to solvent B at 3 minutes, a shallow gradient to 81% solvent B at 38 minutes, and 100% solvent B at 40 minutes. […] Effluent from the HPLC column flows directly into a flow-through scintillation spectrometer […]. Because of the sensitivity limitations of the β-RAM spectrometer, it is not used to quantitate peak areas but rather to confirm ATRA and ATRA 4-hydroxylase activity. Calculated peaks areas (using Millenium software—Waters Corp.) of ATRA and ATRA metabolites are used to quantify relative activity levels.

The test system of data set [2] is ATRA 4-hydroxylase (CYP) activity of pig liver microsomes. The data set is described as follows: In vitro ATRA 4-hydroxylase activity assay to determine CYP inhibition (pig liver microsomes). Particulars: pig liver microsomes.
Source text: as §1, §2, §3, §4

A further data set has as its system facial skin. The data set is described as follows: Method of treatment: topical application to the face, appearance of aging skin. Particulars: 0.55% by weight in a vehicle, entire face, one to two times a day for 8 weeks. Format: in vivo, human. An excerpt:
A test subject topically applies a composition comprising 0.55% 1-phenylimidazole, by weight in a vehicle, to the entire face one to two times a day for 8 weeks.

Setting [3] is: human recombinant CYP3A4, P450-GLO kit.
Where [4] appears, read: read-out: hit / no hit (CYP3A4 inhibition), human recombinant CYP3A4, P450-GLO kit.

Sequence of CYP3A4 (P08684 whole entry): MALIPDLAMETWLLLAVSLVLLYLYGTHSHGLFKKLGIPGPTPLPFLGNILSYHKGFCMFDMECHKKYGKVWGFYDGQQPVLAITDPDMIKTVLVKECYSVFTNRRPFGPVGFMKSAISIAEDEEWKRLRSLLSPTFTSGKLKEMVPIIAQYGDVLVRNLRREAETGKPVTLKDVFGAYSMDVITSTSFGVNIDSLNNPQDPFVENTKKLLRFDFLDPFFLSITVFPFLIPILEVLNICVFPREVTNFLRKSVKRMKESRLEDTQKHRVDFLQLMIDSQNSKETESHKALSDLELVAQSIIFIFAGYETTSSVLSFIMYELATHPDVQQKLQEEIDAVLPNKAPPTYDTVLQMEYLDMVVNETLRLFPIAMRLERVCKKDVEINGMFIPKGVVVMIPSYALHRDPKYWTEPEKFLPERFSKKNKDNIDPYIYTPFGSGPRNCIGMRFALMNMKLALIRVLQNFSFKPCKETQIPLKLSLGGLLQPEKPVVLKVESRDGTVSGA

In the case of `N=C(N)c1ccc(OCCCCCCOc2ccc(C(=N)N)cc2)cc1` [Hexamidine diisethionate], the IC50 on CYP3A4 (setting [3]) and on CYP3A4 (setting [4]) was over 10 µM throughout.

As to `CCCCNC(=O)n1c(NC(=O)OC)nc2ccccc21` [Benomyl], the IC50 on CYP3A4 (setting [3]) and on CYP3A4 (setting [4]) was over 10 µM throughout.

On to `NCCCn1ccnc1` [N-(3-Aminopropyl) imidazole], for which the IC50 on CYP3A4 (human, recombinant enzyme) was over 10 µM.

On to `Cc1cccc(C)c1N(Cn1cccn1)C(=O)CCl` [Metazachlor], for which the IC50 on CYP3A4 (setting [3]) and at CYP3A4 (setting [4]) was over 10 µM throughout.

For the compound `CC(=O)/C=C/C1=C(C)CCCC1(C)C` [β-Ionone], the IC50 on CYP3A4 (human, recombinant enzyme) is over 10 µM.

Turning to `Cn1ccnc1` [1-Methylimidazole], at CYP3A4 (human, recombinant enzyme), the IC50 is over 10 µM.

In the case of `c1ccc(Cn2ccnc2)cc1` [1-benzylimidazole], in data set [1], the IC50 worked out at 77.5 µM.

Compound `CC(=O)c1ccc(-n2ccnc2)cc1` [4′-(Imidazol-1 yl) acetophenome] gave an IC50 at CYP3A4 of under 10 µM.

Consider `N[C@@H](Cc1c[nH]c2ccccc12)C(=O)O` [L-Tryptophan], for which the IC50 at CYP3A4 (human, recombinant enzyme) is over 10 µM.

With `Nc1nc[nH]n1` [Amitrol], the IC50 at CYP3A4 (human, recombinant enzyme) was over 10 µM.

As to `c1ccc(-c2nc[nH]c2-c2ccccc2)cc1` [4,5-diphenylimidazole], in data set [1], the IC50 at 90 min was found to be 100 µM.

In the case of `Cc1nccn1Cc1ccccc1` [1-benzyl-2-methylimidazole], the IC50 at 90 min in data set [1] came to 308 µM.

For `Cn1c(=O)c2[nH]cnc2n(C)c1=O` [Theophylline], the IC50 at CYP3A4 (setting [4]) is over 10 µM.

Consider `c1ccc(-c2ncc[nH]2)cc1` [2-phenylimidazole, 2-Phenylimidazole], for which, on CYP3A4, the “inhibitory activity in the CYP3A4 assay (in words)” value was “did not”. Also, the results for the IC50 (at CYP3A4 (setting [3]); at CYP3A4 (setting [4]); in data set [1]) were over 10 µM, over 10 µM and over 500 µM, respectively. Besides, in data set [2], the “CYP inhibitory activity (in words)” value is reported as “lacked any significant inhibitory activity”.

For the compound `CC(=O)n1ccnc1` [1-Acetylimidazole], the IC50 on CYP3A4 (setting [3]) and at CYP3A4 (setting [4]) was over 10 µM in each case.

On to `CC1=N[C@H](C(=O)O)CCN1` [Ectoine], for which, on CYP3A4 (human, recombinant enzyme), the IC50 is over 10 µM.

Regarding `c1ccc2[nH]cnc2c1` [Benzimidazole], the IC50 at CYP3A4 (setting [3]) and at CYP3A4 (setting [4]) was over 10 µM in each case.

`C=Cn1ccnc1` [1-Vinylimidazole]: the IC50 on CYP3A4 (setting [3]) and at CYP3A4 (setting [4]) was over 10 µM throughout.

Take `c1ccc(-n2ccnc2)cc1` [1-phenylimidazole]: the IC50 was under 10 µM on CYP3A4, 1 µM on CYP3A4 (setting [3]) and 52.5 µM in data set [1]. The “inhibitory activity in the CYP3A4 assay (in words)” value at CYP3A4 was “showed inhibitory activity”. Further, the “CYP inhibitory activity (in words)” value in data set [2] is listed as “elicit CYP inhibitory activity”. Further, in the data set on facial skin, the “appearance of aging facial skin after treatment” value was “facial skin feels and appears less aged”.

`CC(NC(=O)[C@@H](N)CCC(=O)O)c1ncc[nH]1` (stereo partly shown) [Glutamylamidoethyl imidazole]: the IC50 at CYP3A4 (human, recombinant enzyme) was over 10 µM.

Turning to `CCCCc1nc(C=O)c(Cl)[nH]1` [2-Butyl-4-chloro-5-formylimidazole], the IC50 on CYP3A4 (human, recombinant enzyme) was over 10 µM.

Regarding `CCc1cccc(C)c1N(C(=O)CCl)C(C)COC` (stereo not shown) [Metolachlor], the IC50 on CYP3A4 is over 10 µM.

For `O=C(n1ccnc1)n1ccnc1` [1′-1-Carbonylimidazole], the IC50 at CYP3A4 (setting [3]) and at CYP3A4 (setting [4]) was over 10 µM in each case.

With `c1ccc(-c2n[nH]cc2-c2ccnc3ccccc23)nc1` [LY-364947], on CYP3A4 (human, recombinant enzyme), the IC50 was over 10 µM.

`CC(C)(C(=O)c1cccnc1)c1cccnc1` [Metyrapone] showed an IC50 on CYP3A4 of under 10 µM.

Regarding `O=C(/C=C/C=C/c1ccc2c(c1)OCO2)N1CCCCC1` [Piperine], the IC50 at CYP3A4 (human, recombinant enzyme) was under 10 µM.

As for `Cc1ncc[nH]1` [2-Methylimidazole], the IC50 on CYP3A4 (setting [3]) and at CYP3A4 (setting [4]) was over 10 µM each time.

Consider `Cc1ccc2cc3c(ccc4ccccc43)c3c2c1CC3` [Methyl- cholanthrene], for which, on CYP3A4 (setting [3]), the IC50 was over 10 µM and the “hit / no hit (CYP3A4 inhibition)” value was “Near Hit”.

As for `CCc1ncc[nH]1` [2-Ethylimidazole], the IC50 on CYP3A4 (human, recombinant enzyme) was over 10 µM.

For the compound `c1coc(-c2nc3ccccc3[nH]2)c1` [Fuberidazole], the IC50 at CYP3A4 (setting [3]) and at CYP3A4 (setting [4]) was over 10 µM in each case.

Regarding `Clc1ncnc2[nH]cnc12` [6-Chloropurine], on CYP3A4 (human, recombinant enzyme), the IC50 was over 10 µM.

Consider `N[C@@H](Cc1c[nH]cn1)C(=O)O` [Histidine], for which the IC50 at CYP3A4 (human, recombinant enzyme) is over 10 µM.

As for `CCc1nc(C)c[nH]1` [2-Ethyl-4-methyl-imidazole], the IC50 at CYP3A4 (setting [3]) and at CYP3A4 (setting [4]) was over 10 µM each time.

With `Clc1ccccc1-c1nc2ccccc2[nH]1` [2-(2-Chlorophenyl) benzimidazole], the IC50 on CYP3A4 (setting [3]) and on CYP3A4 (setting [4]) was over 10 µM each time.
